The text below walks through data of patent publication US20250241996A1, “COMBINATORIAL, AND ROTATIONAL COMBINATORIAL THERAPIES” (Starrock Pharma Inc., priority 2022, published 2025).

Data set [1] is described as follows: Side effects and tolerability during the combinatorial weight loss regimen (Example 2). The procedure:
Subjects were seen once weekly for the first 4 weeks, and then once every two weeks, for six visits, for a total of 10 visits over 16 weeks. Vital signs and side effects were assessed at each visit.
Subjects were administered or self-administered the medications in the protocol by the appropriate route (i.e., subcutaneous injection or oral tablet/capsule) for […]. Subjects initially were administered a combination of: 1) a GLP-1 agonist (sold under trademarks Trulicity®, B-cise®, Ozempic®, and Victoza®), 2) Phentermine, 3) Liothyronine, 4) topiramate (sold under the trademark Topamax® carbonic anhydrase inhibitor), and 5) Sermorelin. The starting dosages are listed below in Table 17. The dosages were adjusted throughout the treatment period based on the subject response (i.e., weight loss), tolerability, volume of distribution, subject weight, and at the discretion of the treating physician. For example, the dosage of the GLP-1 agonists Trulicity® and Ozempic® was adjusted depending on the response to the medications. The dosage of the Bydureon BCcise® GLP-1 agonist was not adjusted since it is only produced in a 2 mg injectable dose. Phentermine was increased depending on subject response, to, for example, one 37.5 mg tablet in the morning and one-half tablet ([…]) at 2 p.m. […] If no progression was noted on the initial medications listed above, then the following medications were added to the protocol: Acarbose, Januvia® dipeptidyl peptidase-4 (DPP-4) inhibitor, Invokana® sodium-glucose co-transporter 2 (SGLT2) inhibitor, and Farxiga® (dapagliflozin) in the dosages listed in Table 17, below. For example, if weight loss progress was slow and a subject was consuming large amounts of carbohydrate-rich foods, the alpha-glucosidase inhibitor, Acarbose, was added to the regimen. […] This was added in addition to medications i-iv and ix, below. The regimen provided a minimum of four medications, and more medications were added and/or the dosages were modified as required in subsequent visits.
In other examples, the regimen began with administration of medications i-iv and ix and other medications were added; additional medications were administered at week 2 or week 7, for example, if the subject was not responding and needed an extra pharmacological ‘push.’
As noted above, the medication dosages were adjusted throughout the treatment period as needed, and as agreed to between the treating physician and the subject. […] For larger subjects (i.e., starting weight over 300 pounds) who were losing less than 6 pounds per week, medication dosages were increased or additional medications were added to the regimen. The hierarchy of decision making included 1) increase the dosage of the medications to the maximum allowable dosage or to the level of tolerability of the medication; and then 2) add a fifth or sixth medication, as needed to increase weight loss.

The conditions of data set [2]: cited from earlier work.
The conditions of data set [3]: cited from earlier work. This is another data set of the same source.
The conditions of data set [4]: cited from earlier work. This is another data set of the same source.
The conditions of data set [5]: cited from earlier work. This is another data set of the same source.
The conditions of data set [6]: after 36 weeks, cited from earlier work.

Several values for one entry are separate records, joined by “and”; a condition that tells them apart may be missing. Equal values may be shown once. Read-outs that look alike come from different tables or passages of the source.

As to `C[C@H]1O[C@H](O[C@H]2[C@H](O)[C@@H](O)[C@@H](O[C@H]3[C@H](O)[C@@H](O)C(O)O[C@@H]3CO)O[C@@H]2CO)[C@H](O)[C@@H](O)[C@@H]1N[C@H]1C=C(CO)[C@@H](O)[C@H](O)[C@H]1O` (some centres unmarked) [Acarbose], the “Side effect(s)” value in data set [1] (subject 4, dosages of Table 24) is given as “Mild”.

Consider `Fc1ccccc1Nc1nc2nonc2nc1Nc1ccccc1F` [BAM15, (2-fluorophenyl){6-[(2-fluorophenyl)amino](1,2,5-oxadiazolo [3,4e]pyrazin-5-yl)}amine], for which the “diet-induced obesity and insulin resistance” value in data set [2] (orally administered, mice) is “reverses diet-induced obesity and insulin resistance in mice”.

For the molecule `CC(NC(C)(C)C)C(=O)c1cccc(Cl)c1` (centres unmarked) [Bupropion], the “Side effect(s)” value in data set [1] (in vivo) is given as “None”.

Take `O=[N+]([O-])c1ccc(O)c([N+](=O)[O-])c1` [DNP, 2,4-dinitrophenol]: the toxicity result in data set [3] (tested clinically) is reported as “limited utility owing to toxicity”.

`CCN(CC)C(C)C(=O)c1ccccc1` (centres unmarked) [Diethylproprion]: in data set [1] (subject 2, dosages of Table 20), the “Side effect(s)” value was “None”.

As for `C[C@H]1CNCCc2ccc(Cl)cc21` [Locasarin], in data set [4] (Duration 56 weeks), the Weight loss is 5.8%.

With `O=C1CC[C@@]2(O)[C@H]3Cc4ccc(O)c5c4[C@@]2(CCN3CC2CC2)[C@H]1O5` [Naltrexone], the “weight loss in monotherapy” value in data set [3] (human, in vivo) is recorded as “does not cause weight loss in monotherapy”.

With `CCCCCCCCCCC[C@@H](C[C@@H]1OC(=O)[C@H]1CCCCCC)OC(=O)[C@H](CC(C)C)NC=O` [Orlistat], the placebo-normalized weight loss in data set [3] (human, in vivo) was roughly 2.5%. Besides, in data set [4] (Duration 56 weeks), the “>%5 (percent of subjects who lost greater than 5%)” value was 48%; the “>%10 (percent of subjects who lost greater than 10%)” value is 17.9%; the Weight loss is 6.2% and 4% and 8.5%; the “participants with 5% and more weight loss” value was 48%. The “participants with 10% and more weight loss” value in data set [4] (Duration 56 weeks) is 17.9%.

Turning to `C[C@H]1[C@H](c2ccccc2)OCCN1C` [Phendimetrazine], in data set [1] (subject 5, dosages of Table 26), the “Side effect(s)” value is on record as “None”.

On to `CC(C)(N)Cc1ccccc1` [Phentermine], for which the “Side effect(s)” value was “Dry mouth” in data set [1] (subject 1, dosages of Table 18); “Dry mouth” in data set [1] (subject 2, dosages of Table 20); “None and Dry mouth” in data set [1] (subject 3, dosages of Table 22); “None” in data set [1] (subject 4, dosages of Table 24); “None” in data set [1] (subject 5, dosages of Table 26). Also, in data set [4] (Duration 12 weeks), the “>%5 (percent of subjects who lost greater than 5%)” value was 95%. In addition, the “>%10 (percent of subjects who lost greater than 10%)” value in data set [4] (Duration 12 weeks) is 62.5%. For the same molecule, the Weight loss in data set [4] (Duration 12 weeks) was 8% and 7%; in data set [4] (Duration 12 weeks, listed as phentermine), 8% and 7%; in data set [4] (Duration 20 weeks), 9%; in data set [4] (Duration 28 weeks), 6%. Besides, in data set [4] (Duration 12 weeks), the “participants with 5% and more weight loss” value is 95%. In addition, the “participants with 10% and more weight loss” value in data set [4] (Duration 12 weeks) is listed as 62.5%.

On to `Cc1c(C(=O)NN2CCCCC2)nn(-c2ccc(Cl)cc2Cl)c1-c1ccc(Cl)cc1` [Rimonabant], for which, in data set [3] (human, in vivo), the adverse psychiatric effects result is given as “discontinued in 2009 due to serious adverse psychiatric effects” and the placebo-subtracted weight loss is 2.6 to 6.3 kg.

Take `CCOC[C@@H]1[C@@H](c2ccc(Cl)c(Cl)c2)C[C@@H]2CC[C@H]1N2C` [Tesofensine]: in data set [3] (phase II study, dose-dependent), the “decrease of body weight” value is 4.4-10.4%.

On to `CC1(C)O[C@@H]2[C@@H](CO[C@@]3(COS(N)(=O)=O)OC(C)(C)O[C@@H]23)O1` [Topiramate], for which, in data set [1] (in vivo), the “tolerability within the regimen” value was “the least tolerated, and was discontinued in some cases”.

For the molecule `CC[C@H](C)[C@H](NC(=O)[C@H](Cc1ccccc1)NC(=O)[C@H](CCC(=O)O)NC(=O)[C@H](CCCCNC(=O)COCCOCCNC(=O)COCCOCCNC(=O)CC[C@H](NC(=O)CCCCCCCCCCCCCCCCC(=O)O)C(=O)O)NC(=O)[C@H](C)NC(=O)[C@H](C)NC(=O)[C@H](CCC(N)=O)NC(=O)CNC(=O)[C@H](CCC(=O)O)NC(=O)[C@H](CC(C)C)NC(=O)[C@H](Cc1ccc(O)cc1)NC(=O)[C@H](CO)NC(=O)[C@H](CO)NC(=O)[C@@H](NC(=O)[C@H](CC(=O)O)NC(=O)[C@H](CO)NC(=O)[C@@H](NC(=O)[C@H](Cc1ccccc1)NC(=O)[C@@H](NC(=O)CNC(=O)[C@H](CCC(=O)O)NC(=O)C(C)(C)NC(=O)[C@@H](N)Cc1cnc[nH]1)[C@@H](C)O)[C@@H](C)O)C(C)C)C(=O)N[C@@H](C)C(=O)N[C@@H](Cc1c[nH]c2ccccc12)C(=O)N[C@@H](CC(C)C)C(=O)N[C@H](C(=O)N[C@@H](CCCNC(=N)N)C(=O)NCC(=O)N[C@@H](CCCNC(=N)N)C(=O)NCC(=O)O)C(C)C` [semaglutide], in data set [1] (in vivo), the “Side effect(s)” value was “constipation”.

Turning to `CC[C@H](C)[C@H](NC(=O)[C@H](C)NC(=O)[C@H](CC(=O)O)NC(=O)[C@H](C)NC(=O)[C@@H](N)Cc1ccc(O)cc1)C(=O)N[C@@H](Cc1ccccc1)C(=O)N[C@H](C(=O)N[C@@H](CC(N)=O)C(=O)N[C@@H](CO)C(=O)N[C@@H](Cc1ccc(O)cc1)C(=O)N[C@@H](CCCNC(=N)N)C(=O)N[C@@H](CCCCN)C(=O)N[C@H](C(=O)N[C@@H](CC(C)C)C(=O)NCC(=O)N[C@@H](CCC(N)=O)C(=O)N[C@@H](CC(C)C)C(=O)N[C@@H](CO)C(=O)N[C@@H](C)C(=O)N[C@@H](CCCNC(=N)N)C(=O)N[C@@H](CCCCN)C(=O)N[C@@H](CC(C)C)C(=O)N[C@@H](CC(C)C)C(=O)N[C@@H](CCC(N)=O)C(=O)N[C@@H](CC(=O)O)C(=O)N[C@H](C(=O)N[C@@H](CCSC)C(=O)N[C@@H](CO)C(=O)N[C@@H](CCCNC(=N)N)C(N)=O)[C@@H](C)CC)C(C)C)[C@@H](C)O` [sermorelin], the “Side effect(s)” value in data set [1] (in vivo) is “None”.

In the case of “Novo Nordisk Wegovy ™ semaglutide weight loss medication”, the “12 weeks % weight change” value in data set [5] (Wegovy Study 1, baseline mean body weight 105.4 kg) was −6%; in data set [5] (Wegovy Study 2, baseline mean body weight 99.9 kg) it was −4.5%; in data set [5] (Wegovy Study 3, baseline mean body weight 106.9 kg), −7%; in data set [5] (Wegovy Study 4, baseline mean body weight 107.2 kg) it was −5.5%. Also, the “36 weeks % weight change” value in data set [5] (Wegovy Study 1) is reported as −12%; in data set [5] (Wegovy Study 2) it was −9%; in data set [5] (Wegovy Study 3), −13%; in data set [5] (Wegovy Study 4), −12%.

As for dulaglutide, the average weight lost is recorded as 6.6 pounds in data set [6] (1.5 mg once weekly with ≥1500 mg/day metformin), 8.4 pounds in data set [6] (3.0 mg once weekly with ≥1500 mg/day metformin) and 1.1 pounds in data set [6] (4.5 mg once weekly with ≥1500 mg/day metformin). Besides, the “Side effect(s)” value in data set [1] (in vivo) was “constipation”.

For “leptin: 167 amino acid hormone (SEQ ID NO:3)”, the “lowering of body weight by supplementation” value in data set [3] (obese individuals) is on record as “has not been shown to be effective to lower body weight in obese individuals”.

B1: recombinant GDF15: Macrophage inhibitory cytokine 1 (SEQ ID NO:33) (protein, listed as Homo sapiens)
chain: MPGQELRTVNGSQMLLVLLVLSWLPHGGALSLAEASRASFPGPSELHSEDSRFRELRKRYEDLLTRLRANQSWEDSNTDLVPAPAVRILTPEVRLGSGGHLHLRISRAALPEGLPEASRLHRALFRLSPTASRSWDVTRPLRRQLSLARPQAPALHLRLSPPPSQSDQLLAESSSARPQLELHLRPQAARGRRRARARNGDHCPLGPGRCCRLHTVRASLEDLGWADWVLSPREVQVTMCIGACPSQFRAANMHAQIKTSLHRLKPDTVPAPCCVPASYNPMVLIQKTDTGVSLQTYDDLLAKDCHCI
modifications: Macrophage inhibitory cytokine 1 (MIC1 or GDF15)
Regarding B1, the body weight entry in data set [2] (exogenous administration, diet-induced obese mice and non-human primates) is “decreases body weight in diet-induced obese mice and non-human primates”.
